17 molecules from ChEMBL document CHEMBL1671719, “Inhibition of antibiotic-resistant Staphylococcus aureus by the broad-spectrum dihydrofolate reductase inhibitor RAB1” (Antimicrob Agents Chemother, 2010) can be followed below.

In brackets after ≈: the same amount, converted by molar mass. Several values for one entry are separate records, joined by “and”; a condition that tells them apart may be missing. Equal entries are not always repeated.

The test system of assay [1] is Staphylococcus aureus. The assay is described as follows: Antimicrobial activity against methicillin-resistant Staphylococcus aureus isolate NRS70 by broth microdilution method. The format is functional. A general note: Broth dilution looks for growth in wells or tubes with falling amounts of substance.
In assay [2] the test system is Staphylococcus aureus. The assay is described as follows: Antimicrobial activity against methicillin-resistant Staphylococcus aureus isolate NRS1 by broth microdilution method. The format is functional.
The subject of assay [3] is Staphylococcus aureus. The assay is described as follows: Antimicrobial activity against vancomycin-resistant Staphylococcus aureus VRS1 by broth microdilution method. The format is functional.
For assay [4], the system named is Staphylococcus aureus. Description: Antimicrobial activity against vancomycin-resistant Staphylococcus aureus VRS2 by broth microdilution method. It is filed as functional.
Assay [5] concerns Staphylococcus aureus. Description: Antimicrobial activity against vancomycin-resistant Staphylococcus aureus VRS3 by broth microdilution method. It is filed as functional.
Another assay deals with Francisella tularensis. Description: Antimicrobial activity against Francisella tularensis Schu4 by broth microdilution method. It is filed as functional.
In another assay the test system is Yersinia pestis. The assay is described as follows: Antimicrobial activity against Yersinia pestis CO92 by broth microdilution method. The format is functional.
A further assay has as its system Brucella abortus. Description: Antimicrobial activity against Brucella abortus 2308 by broth microdilution method. The format is functional.
A further assay relates to Bacillus anthracis. The assay is described as follows: Antimicrobial activity against Bacillus anthracis Ames by broth microdilution method. The format is functional.
Assay [6] has as its target Dihydrofolate reductase (Staphylococcus aureus, UniProt P0A017). Description: Inhibition of Staphylococcus aureus wild type recombinant DHFR by MTS assay.
The target in assay [7] is Dihydrofolate reductase (Staphylococcus aureus, UniProt P0A017, F99Y). The assay is described as follows: Inhibition of Staphylococcus aureus DHFR F98Y mutant by MTS assay.
For assay [8], the system named is Staphylococcus aureus. The assay is described as follows: Ratio of Ki for TMP-resistant Staphylococcus aureus DHFR to Ki for wild type Staphylococcus aureus DHFR.
The next assay concerns Enterococcus faecalis. Description: Antimicrobial activity against vancomycin-resistant Enterococcus faecalis ATCC 700802 by broth microdilution method. It is filed as functional.
The subject of assay [9] is Staphylococcus aureus. The assay is described as follows: microbe, parasite or virus in culture. The conditions noted are these: isolate NRS71.
The test system of assay [10] is Staphylococcus aureus. The assay is described as follows: microbe, parasite or virus in culture. The following applies: isolate NRS123.
Assay [11] relates to Staphylococcus aureus. The assay is described as follows: Antimicrobial activity against methicillin-resistant Staphylococcus aureus. It is filed as functional.

As to `CCCC1c2ccccc2C=NN1C(=O)/C=C/c1cc(Cc2cnc(N)nc2N)cc(O)c1OC` (centres undefined), the MIC is no more than 0.0625 µg/mL in the assay with Staphylococcus aureus [1]; no more than 0.0625 µg/mL in the assay with Staphylococcus aureus [2]; 8 µg/mL (≈ 16.9 µM) in the assay on Staphylococcus aureus [3]; 4 µg/mL (≈ 8.46 µM) in the assay with Staphylococcus aureus [4]; no more than 0.125 µg/mL against Staphylococcus aureus [5]; 1 µg/mL (≈ 2.12 µM) in the assay with Francisella tularensis. The MIC against Yersinia pestis is 4 µg/mL (≈ 8.46 µM); in the assay on Brucella abortus, 16 µg/mL (≈ 33.9 µM); in the assay with Bacillus anthracis, 1 µg/mL (≈ 2.12 µM); against Enterococcus faecalis it was 0.03 µg/mL (≈ 0.0635 µM); in the assay with Staphylococcus aureus [9], no more than 0.0625 µg/mL; in the assay with Staphylococcus aureus [10], no more than 0.0625 µg/mL. The IC50 – broadly, the concentration that gives 50% inhibition – on Dihydrofolate reductase [6] was 9.4 nM and 5.2 nM; at Dihydrofolate reductase [7] it was 8.8 nM and 22.6 nM. For the same molecule, the results for the Ki on Dihydrofolate reductase [6] and at Dihydrofolate reductase [7] were 2.8 nM and 0.9 nM, respectively. Also, in the assay on Staphylococcus aureus [8], the Ratio IC50 amounted to 0.9. Further, the Ratio Ki in the assay with Staphylococcus aureus [8] is 0.3.

With GENTAMICIN, the MIC in the assay on Staphylococcus aureus [1] was 1 µg/mL; in the assay on Staphylococcus aureus [2] it was greater than 16 µg/mL; against Staphylococcus aureus [3], greater than 16 µg/mL; against Staphylococcus aureus [4], greater than 16 µg/mL; against Staphylococcus aureus [5], greater than 16 µg/mL.

On to `CC1(C)S[C@@H]2[C@H](NC(=O)Cc3ccccc3)C(=O)N2[C@H]1C(=O)O` [PENICILLIN G], for which the MIC is greater than 2 µg/mL in the assay with Staphylococcus aureus [1]; greater than 8 µg/mL in the assay on Staphylococcus aureus [2]; greater than 2 µg/mL with Staphylococcus aureus [3]; greater than 2 µg/mL in the assay on Staphylococcus aureus [4]; greater than 2 µg/mL against Staphylococcus aureus [5]; greater than 2 µg/mL with Staphylococcus aureus [9]. The MIC against Staphylococcus aureus [10] is greater than 2 µg/mL.

Take `Cc1onc(-c2ccccc2)c1C(=O)N[C@@H]1C(=O)N2[C@@H]1SC(C)(C)[C@@H]2C(=O)O` [OXACILLIN]: the MIC was greater than 16 µg/mL against Staphylococcus aureus [1]; greater than 32 µg/mL in the assay with Staphylococcus aureus [2]; greater than 16 µg/mL against Staphylococcus aureus [3]; greater than 16 µg/mL against Staphylococcus aureus [4]; greater than 16 µg/mL in the assay on Staphylococcus aureus [5]; greater than 16 µg/mL against Staphylococcus aureus [9]. In the assay with Staphylococcus aureus [10], this molecule registered an MIC greater than 16 µg/mL.

Consider `COc1ncc([C@H]2c3ccccc3C=NN2C(=O)/C=C/c2cc(Cc3cnc(N)nc3N)cc(OC)c2OC)cn1`, for which, on Dihydrofolate reductase [6], the IC50 was 11.5 nM and 3.9 nM; the Ki (in general, a measure of affinity in units of concentration, obtained from inhibition or displacement) worked out at 3.5 nM. In addition, at Dihydrofolate reductase [7], it took 65.4 nM to reach half-maximal inhibition (IC50) and the Ki was found to be 6.5 nM. Moreover, in the assay on Staphylococcus aureus [8], the Ratio IC50 was found to be 5.7 and the Ratio Ki came out at 1.9.

As for `COc1cc([C@H](C)C#Cc2c(C)nc(N)nc2N)ccc1-c1c(C)cccc1C`, the IC50 at Dihydrofolate reductase [6] worked out at 61 nM; against Dihydrofolate reductase [7], 190 nM.

Regarding `O=C(O)c1cn(C2CC2)c2cc(N3CCNCC3)c(F)cc2c1=O` [CIPROFLOXACIN], the MIC in the assay on Staphylococcus aureus [1] is 0.5 µg/mL (≈ 1.51 µM); in the assay on Staphylococcus aureus [3], greater than 16 µg/mL; in the assay on Staphylococcus aureus [4] it was greater than 16 µg/mL; with Staphylococcus aureus [5] it was greater than 16 µg/mL; against Staphylococcus aureus [9], greater than 16 µg/mL; in the assay on Staphylococcus aureus [10], 0.5 µg/mL (≈ 1.51 µM).

For the molecule `COc1cc(-c2ccccc2)cc([C@@H](C)C#Cc2c(C)nc(N)nc2N)c1`, the figures for the IC50 at Dihydrofolate reductase [6] and at Dihydrofolate reductase [7] were 61 nM and 190 nM, respectively.

With `Nc1ccnc(N)n1` [DIAMINOPYRIMIDINE], the MIC was found to be 2 µg/mL (≈ 18.2 µM) against Staphylococcus aureus [2] and 0.5 µg/mL (≈ 4.54 µM) against Staphylococcus aureus [10].

Consider `CC[C@H]1OC(=O)[C@H](C)[C@@H](O[C@H]2C[C@@](C)(OC)[C@@H](O)[C@H](C)O2)[C@H](C)[C@@H](O[C@@H]2O[C@H](C)C[C@H](N(C)C)[C@H]2O)[C@](C)(O)C[C@@H](C)C(=O)[C@H](C)[C@@H](O)[C@]1(C)O` [ERYTHROMYCIN], for which the MIC against Staphylococcus aureus [1] was greater than 8 µg/mL; in the assay on Staphylococcus aureus [3], greater than 8 µg/mL; against Staphylococcus aureus [4], greater than 8 µg/mL; in the assay on Staphylococcus aureus [5] it was greater than 8 µg/mL; against Staphylococcus aureus [9], greater than 8 µg/mL; against Staphylococcus aureus [10], 0.5 µg/mL (≈ 0.681 µM).

For `CC(=O)NC[C@H]1CN(c2ccc(N3CCOCC3)c(F)c2)C(=O)O1` [LINEZOLID], the MIC with Staphylococcus aureus [1], in the assay with Staphylococcus aureus [4] and against Staphylococcus aureus [9] was 1 µg/mL (≈ 2.96 µM) throughout.

For `CN(C)[C@@H]1C(O)=C(C(N)=O)C(=O)[C@@]2(O)C(O)=C3C(=O)c4c(O)cccc4[C@@](C)(O)[C@H]3C[C@@H]12` [TETRACYCLINE], the MIC with Staphylococcus aureus [2] and against Staphylococcus aureus [10] was 32 µg/mL (≈ 72 µM) in each case.

Turning to `CCC[C@@H]1C[C@@H](C(=O)N[C@@H]([C@H]2O[C@H](SC)[C@H](O)[C@@H](O)[C@H]2O)[C@H](C)Cl)N(C)C1` [CLINDAMYCIN], the MIC is greater than 4 µg/mL against Staphylococcus aureus [1]; greater than 4 µg/mL in the assay on Staphylococcus aureus [3]; greater than 4 µg/mL in the assay with Staphylococcus aureus [4]; greater than 4 µg/mL in the assay on Staphylococcus aureus [5]; greater than 4 µg/mL against Staphylococcus aureus [9]; 0.12 µg/mL (≈ 0.282 µM) in the assay on Staphylococcus aureus [10].

With `COc1cc(Cc2cnc(N)nc2N)c2c(c1OC)OC(C1CC1)C=C2` (centres undefined), the MIC in the assay on Staphylococcus aureus [11] was no more than 0.06 µg/mL.

Regarding `CN[C@H](CC(C)C)C(=O)N[C@H]1C(=O)N[C@@H](CC(N)=O)C(=O)N[C@H]2C(=O)N[C@H]3C(=O)N[C@H](C(=O)N[C@H](C(=O)O)c4cc(O)cc(O)c4-c4cc3ccc4O)[C@H](O)c3ccc(c(Cl)c3)Oc3cc2cc(c3O[C@@H]2O[C@H](CO)[C@@H](O)[C@H](O)[C@H]2O[C@H]2C[C@](C)(N)[C@H](O)[C@H](C)O2)Oc2ccc(cc2Cl)[C@H]1O` [VANCOMYCIN], the MIC is 8 µg/mL (≈ 5.52 µM) against Staphylococcus aureus [2], greater than 256 µg/mL with Staphylococcus aureus [3], 64 µg/mL (≈ 44.2 µM) with Staphylococcus aureus [4] and greater than 32 µg/mL in the assay on Staphylococcus aureus [5].

Consider `CCC[C@H]1c2ccccc2C=NN1C(=O)/C=C/c1cc(Cc2cnc(N)nc2N)cc(OC)c1OC`, for which, on Dihydrofolate reductase [6], the IC50 was 2.9 nM and 12.5 nM; the Ki is 0.9 nM. At Dihydrofolate reductase [7], affinity was put at a Ki of 0.2 nM. In the assay on Staphylococcus aureus [8], the Ratio IC50 was found to be 0.6 and the Ratio Ki is 0.2.

Regarding `COc1cc(Cc2cnc(N)nc2N)cc(OC)c1OC` [TRIMETHOPRIM], the MIC is 2 µg/mL (≈ 6.89 µM) with Staphylococcus aureus [1]; 2 µg/mL (≈ 6.89 µM) against Staphylococcus aureus [2]; greater than 256 µg/mL with Staphylococcus aureus [3]; greater than 256 µg/mL with Staphylococcus aureus [4]; 2 µg/mL (≈ 6.89 µM) in the assay on Staphylococcus aureus [5]; 16 µg/mL (≈ 55.1 µM) against Francisella tularensis. Also, the MIC was no more than 1 µg/mL in the assay on Yersinia pestis; 32 µg/mL (≈ 110 µM) in the assay on Brucella abortus; greater than 256 µg/mL in the assay with Bacillus anthracis; no more than 1 µg/mL in the assay with Enterococcus faecalis; 2 µg/mL (≈ 6.89 µM) with Staphylococcus aureus [9]; 2 µg/mL (≈ 6.89 µM) against Staphylococcus aureus [10].
